Assay results reported in publication PMC2852430 (Biochemistry, 2010).

What was measured:
[1] = system: cells containing human β1; settings: cited from earlier work
[2] = system: bovine brain tubulin (BbTb); experiment: Inhibition of paclitaxel-induced tubulin assembly; format: biochemical; settings: read-out: IC50, inhibition of Taxol-induced assembly of BbTb; 2 μM tubulin
[3] = system: bovine brain tubulin (BbTb); experiment: Association kinetics of ligand binding to BbTb by fluorescence; settings: 25°C, […] μM allocolchicine; for kf, apparent second order rate constant of the fast phase of biphasic binding to BbTb: 1 μM BbTb, 20 μM colchicinoid
[4] = system: bovine brain tubulin (BbTb); experiment: Equilibrium fluorescence titration of allocolchicine with BbTb; format: binding; settings: 25°C
[5] = biological target: chicken erythrocyte tubulin (CeTb), ~95% βVI (Gallus gallus, UniProt P09207); experiment: biochemical; format: biochemical
Sequence of chicken erythrocyte tubulin (CeTb), ~95% βVI (P09207 whole entry): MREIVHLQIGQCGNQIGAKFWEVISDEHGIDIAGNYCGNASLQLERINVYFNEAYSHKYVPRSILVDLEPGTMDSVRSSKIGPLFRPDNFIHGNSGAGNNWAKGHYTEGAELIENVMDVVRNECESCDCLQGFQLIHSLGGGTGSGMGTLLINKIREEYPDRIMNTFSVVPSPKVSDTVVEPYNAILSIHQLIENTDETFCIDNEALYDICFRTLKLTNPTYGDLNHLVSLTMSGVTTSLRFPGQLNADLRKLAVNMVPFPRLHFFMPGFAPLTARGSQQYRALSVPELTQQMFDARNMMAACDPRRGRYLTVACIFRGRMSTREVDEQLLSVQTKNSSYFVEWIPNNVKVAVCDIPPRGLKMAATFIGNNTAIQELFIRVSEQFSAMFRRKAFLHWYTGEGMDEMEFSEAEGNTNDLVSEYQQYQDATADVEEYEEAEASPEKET
Sequence of chicken erythrocyte tubulin (CeTb), ~95% βVI (P02552 whole entry partner): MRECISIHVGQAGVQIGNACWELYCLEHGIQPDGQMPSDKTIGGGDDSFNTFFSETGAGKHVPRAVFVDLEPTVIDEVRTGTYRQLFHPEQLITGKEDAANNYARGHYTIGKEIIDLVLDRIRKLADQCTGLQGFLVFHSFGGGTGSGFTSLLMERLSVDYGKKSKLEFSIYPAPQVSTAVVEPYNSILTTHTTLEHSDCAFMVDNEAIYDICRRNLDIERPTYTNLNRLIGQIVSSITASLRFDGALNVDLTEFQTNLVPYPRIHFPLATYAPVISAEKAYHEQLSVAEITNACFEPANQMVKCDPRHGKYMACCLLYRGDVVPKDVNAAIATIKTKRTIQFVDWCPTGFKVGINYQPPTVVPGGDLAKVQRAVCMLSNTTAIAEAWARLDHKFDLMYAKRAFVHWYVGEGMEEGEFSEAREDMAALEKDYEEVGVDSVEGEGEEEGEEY

COc1cc2c(cc1O)CC[C@@H]1[C@@H]2CC[C@]2(C)[C@@H](O)CC[C@@H]12 [2-methoxyestradiol]
Sensitivity of cells containing human β1 to ligand [1]: insensitive

COC(=O)c1ccc2c(c1)[C@@H](NC(C)=O)CCc1cc(OC)c(OC)c(OC)c1-2 [Allocolchicine, allocolchicine]
IC50 [2]: 0.5 µM | kf, apparent second order rate constant of the fast phase of biphasic binding to BbTb [3]: 343 ± 7 M⁻¹ s⁻¹ | Time for binding to BbTb to attain a plateau ([3]; 1 μM tubulin): ≤ 600 s | Ligand concentration at which fluorescence enhancement plateaus, BbTb ([4]; 1 μM BbTb): about 20 μM | Association constant (Ka) for BbTb ([4]; 1 μM tubulin, 10% DMSO, single site isotherm): 500000 M⁻¹

COc1cc2c(c(OC)c1OC)-c1ccc(Cl)c(=O)cc1C(NC(C)=O)CC2 (stereo not drawn) [Chlorocolchicine, 10-demethoxy-10-chlorocolchicine]
kf, apparent second order rate constant of the fast phase of biphasic binding to BbTb [3]: 367 ± 7 M⁻¹ s⁻¹

COc1cc([C@@H]2c3cc4c(cc3[C@H](O)[C@H]3COC(=O)[C@H]23)OCO4)cc(OC)c1OC [Podophyllotoxin, podophyllotoxin]
IC50 [5]: 25 ± 1 µM | IC50 for CeTb assembly relative to IC50 for BbTb ([5]; 5 μM tubulin, same experimental conditions): about 15 fold
